These results are taken from patent US11713293B2, “Substituted biaryl sulfonamides and the use thereof” (NovoMedix, LLC, priority 2012, dated 2023).

Each structure is given as a SMILES string.

Series [1] in a line: PK study and oral bioavailability, mouse. In kind it is in vivo. The settings on record: plasma 0 to 6 h.
Series [2] concerns triple negative breast cancer cell line MDA-MB-231. The series can be described thus: Cell-based IC50 assay, adherent cells, MDA-MB-231. The settings on record: Homo sapiens, 72 hours, CellTiter 96 Aqueous One. As to the method: (§1) In one embodiment, the IC50s of the compounds provided herein were determined in cell-based assays using adherent cells. In one embodiment, the activity of the compounds provided herein were determined in a cell-based assay using the triple negative breast cancer cell line MDA-MB-468. In one embodiment, the activity of the compounds provided herein were determined in a cell-based assay using the triple negative breast cancer cell line MDA-MB-231. In one embodiment, the activity of the compounds provided herein were determined in a cell-based assay using the triple negative breast cancer cell line 4T1.
(§2) In one embodiment, the cell-based assay may be carried out as provided herein. On day 0, cells were seeded at 20,000 cells per well in 100 μL of media into individual wells of a 96-well tissue culture plate. The next day, compounds were diluted to twice the desired final concentration and added in 100 μL of media for a final volume of 200 μL. Standard solutions for each compound were prepared at 1000× concentration in DMSO. The highest concentration was […]. Serial 1:1 dilutions were made from there for a 6- or 9-point curve (e.g., 20 mM, 10 mM, 5 mM, etc). Compounds were then diluted 1:500 in media, and 100 μL of the resulting solution was added to each well for a final dilution of 1:1000. Each concentration of compound was tested in triplicate. Cells were incubated at 37° C. with 5% CO2. After 72 hours, 20 μL of CellTiter 96 Aqueous One Solution Cell Proliferation Assay (Promega) was added to each well. Cells were placed back in the incubator, and the absorbance at 490 nm was read after 2-3 hours. The concentration of compound that decreased the number of metabolically active cells by 50% was determined and reported as the IC50. “Percent Viability” was determined by subtracting the average background value (media only) and expressed as a ratio to the average value obtained from cells treated with only DMSO.

Series [3] has as its system triple negative breast cancer cell line 4T1. Put plainly: Cell-based IC50 assay, adherent cells, 4T1. The settings on record: 72 hours, CellTiter 96 Aqueous One. Here is the method: as §1
In one embodiment, the cell-based assay may be carried out as provided herein. On day 0, cells were seeded at 20,000 cells per well in 100 μL of media into individual wells of a 96-well tissue culture plate. The next day, compounds were diluted to twice the desired final concentration and added in 100 μL of media for a final volume of 200 μL. Standard solutions for each compound were prepared at 1000× concentration in DMSO. The highest concentration was 30 mM. […] Cells were placed back in the incubator, and the absorbance at 490 nm was read after 2-3 hours. […] “Percent Viability” was determined by subtracting the average background value (media only) and expressed as a ratio to the average value obtained from cells treated with only DMSO.

Series [4] relates to triple negative breast cancer cell line MDA-MB-468. Put plainly: Cell-based IC50 assay, adherent cells, MDA-MB-468. The settings on record: Homo sapiens, 72 hours, CellTiter 96 Aqueous One, metabolically active cells decreased by 50%. Here is the method:
as §1, §2
The IC50s of the compounds provided herein and some reference compounds were determined in cell-based assay using triple negative breast cancer cell line MDA-MB-468.

A short description of series [5]: PK study and oral bioavailability, rat. The class given is in vivo. As to conditions: plasma 0 to 6 h.
Series [6] concerns m7GpppN-capped luciferase mRNA reporter. The series can be described thus: In vitro HeLa cell extract translation system, translation inhibition. The class given is biochemical. The settings on record: concentration not given. As to the method: In one embodiment, the compounds provided herein were assayed for translation inhibition activity using an in vitro HeLa cell extract translation system with an m7GpppN-capped luciferase mRNA reporter.

The mark [7] stands for this setting: IV 5 mg/kg, read-out: IV Administration (5 mg/kg) C0.
Where [8] appears, read: IV 5 mg/kg, read-out: IV Administration (5 mg/kg) T½ (converted).
Where [9] appears, read: PO 25 mg/kg, read-out: PO Administration (25 mg/kg) C0.

A word on the IC50: it is the point on the concentration scale where inhibition reaches its midpoint. Low values mean inhibition by little substance, high ones a need for much substance.

Consider `Cc1c(NS(=O)(=O)c2c(C(C)C)cc(C(C)C)cc2C(C)C)cc(C(F)(F)F)cc1C(F)(F)F` [Compound 2, N-[2-Methyl-3,5-bis(trifluoromethyl)phenyl]-2,4,6-triisopropyl-benzenesulfonamide], for which the C0 was found to be 53.7 µg/mL in series [1] (setting [7]), 3.61 µg/mL in series [1] (setting [9]), 68.9 µg/mL in series [5] (setting [7]) and 27.6 µg/mL in series [5] (setting [9]). The half-life in series [1] (setting [8]) was 2.9 h; in series [1] (PO 25 mg/kg, read-out: PO Administration (25 mg/kg) T½ (converted)), 2.4 h; in series [5] (setting [8]), 1.6 h; in series [5] (PO 25 mg/kg, read-out: PO Administration (25 mg/kg) T½) it was above 6 h. For the same molecule, the half-maximal inhibitory concentration (IC50) came to 6 µM in series [2], 5 µM in series [3] and 2 µM in series [4].

Regarding `CC(C)c1cc(C(C)C)c(S(=O)(=O)Nc2cc(C(F)(F)F)cc(C(F)(F)F)c2Cl)c(C(C)C)c1` [Compound 3, N-[2-Chloro-3,5-bis(trifluoromethyl)phenyl]-2,4,6-triisopropyl-benzenesulfonamide], the concentration for half-maximal inhibition (IC50) worked out at 3 µM in series [2] and 4.5 µM in series [4]. `CC(C)c1cc(C(C)C)c(NS(=O)(=O)c2cc(C(F)(F)F)cc(C(F)(F)F)c2)c(C(C)C)c1` [Compound 4, 3,5-Bis(trifluoromethyl)-N-(2,4,6-triisopropylphenyl)benzenesulfonamide]: the IC50 in series [4] was determined as 12 µM. `CC(C)c1cc(C(C)C)c(S(=O)(=O)Nc2cc(C(F)(F)F)cc(C(F)(F)F)c2Br)c(C(C)C)c1` [Compound 5, N-[2-Bromo-3,5-bis(trifluoromethyl)phenyl]-2,4,6-triisopropyl-benzenesulfonamide]: the IC50 in series [4] was 5 µM. On the same count and under the same terms, the result for `Cc1cc(C(C)(C)C)cc(C)c1S(=O)(=O)Nc1cc(C(F)(F)F)cc(C(F)(F)F)c1` [Compound 6, N-[3,5-Bis(trifluoromethyl)phenyl]-4-tert-butyl-2,6-dimethyl-benzenesulfonamide] reads 7 µM; that for `CCc1cccc(CC)c1S(=O)(=O)Nc1cc(C(F)(F)F)cc(C(F)(F)F)c1C` [Compound 7, 2,6-Diethyl-N-[2-methyl-3,5-bis(trifluoromethyl)phenyl]benzenesulfonamide], 2 µM; that for `CCc1cccc(CC)c1S(=O)(=O)Nc1cc(C(F)(F)F)cc(C(F)(F)F)c1` [Compound 8, N-[3,5-Bis(trifluoromethyl)phenyl]-2,6-diethyl-benzenesulfonamide], 1.5 µM. On to `Cc1cc(C(C)(C)C)cc(C)c1S(=O)(=O)Nc1cc(C(F)(F)F)cc(C(F)(F)F)c1C` [Compound 9, 4-Tert-butyl-2,6-dimethyl-N-[2-methyl-3,5-bis(trifluoromethyl)phenyl]benzenesulfonamide], for which, in series [4], the IC50 is 5 µM. Consider `Cc1cc(C(C)(C)C)cc(C)c1S(=O)(=O)Nc1cc(C(F)(F)F)cc(C(F)(F)F)c1Cl` [Compound 10, 4-Tert-butyl-N-[2-chloro-3,5-bis(trifluoromethyl)phenyl]-2,6-dimethyl-benzenesulfonamide], for which, in series [4], the IC50 came to 3 µM. Still for that read-out and setting: the result for `O=S(=O)(Nc1cc(C(F)(F)F)cc(C(F)(F)F)c1)c1cc(C(F)(F)F)cc(C(F)(F)F)c1` [Reference compound 1] reads above 20 µM; that for `O=S(=O)(Nc1cc(C(F)(F)F)cc(C(F)(F)F)c1)c1c(Cl)cccc1Cl` [Reference compound 2], 10 µM. Still for that read-out and setting: the result for `N#Cc1ccc(NS(=O)(=O)c2cc(C(F)(F)F)cc(C(F)(F)F)c2)cc1Cl` [Reference compound 3] reads above 20 µM; that for `Cc1cc(C)c(S(=O)(=O)Nc2cc(C(F)(F)F)cc(C(F)(F)F)c2)c(C)c1` [Reference compound 4], 17 µM. Regarding `Cc1c(C)c(C)c(S(=O)(=O)Nc2cc(C(F)(F)F)cc(C(F)(F)F)c2)c(C)c1C` [Reference compound 5], the IC50 in series [4] is above 20 µM. Regarding `COc1ccc(OC)c(S(=O)(=O)Nc2cc(C(F)(F)F)cc(C(F)(F)F)c2)c1` [Reference compound 6], the 50% inhibitory concentration (IC50) in series [4] was above 20 µM. In turn, `CC(C)c1cc(C(C)C)c(S(=O)(=O)Nc2ccc(Br)cc2)c(C(C)C)c1` [Reference compound 7] had a 50% inhibitory concentration (IC50) in series [4] of 14 µM. In series [4], `Cc1ccc(C)c(NS(=O)(=O)c2c(C(C)C)cc(C(C)C)cc2C(C)C)c1` [Reference compound 8] gave an IC50 above 20 µM. The same measure, in the same setting: the result for `CC(C)c1cc(C(C)C)c(S(=O)(=O)Nc2cccc(F)c2)c(C(C)C)c1` [Reference compound 9] reads above 20 µM; that for `Cc1cc(C)c(NS(=O)(=O)c2c(C(C)C)cc(C(C)C)cc2C(C)C)c(C)c1` [Reference compound 10], above 20 µM. The same measure, in the same setting: for `CC(C)c1cc(C(C)C)c(S(=O)(=O)Nc2ccccc2F)c(C(C)C)c1` [Reference compound 11] the value was above 20 µM; for `Cc1c(Cl)cccc1NS(=O)(=O)c1c(C(C)C)cc(C(C)C)cc1C(C)C` [Reference compound 12], 19 µM. `CC(=O)Nc1ccc(S(=O)(=O)Nc2cc(C(F)(F)F)cc(C(F)(F)F)c2)cc1` [Reference compound 13] yielded an IC50 in series [4] above 20 µM. On to `C[C@@H]1C[C@@H]([C@H](O)CC2CC(=O)NC(=O)C2)C(=O)[C@@H](C)C1` [cycloheximide, reference compound], for which the “inhibition of luciferase activity (comparator)” value in series [6] turned out to be 99.3%.
